Data as given in US7829528B2, “Compositions and methods for treating STAT-6 associated diseases or conditions” (The Rockefeller University, priority 2004, dated 2010).
Where no end group is shown, it is not given here.

Legend:
IL-13 = test: Ovalbumin-induced IL-13 production by splenocytes from ovalbumin-sensitized mice (ELISA); type: cell-based, BALB/c mice; details: ovalbumin 100 μg/mL + 100 μM peptide added daily, four days; ovalbumin alone 2585.4 ± 165.7
Procedure: Splenocytes from ovalbumin-sensitized mice were cultured for four days with no antigen, with ovalbumin alone, or with ovalbumin plus the STAT-6-IP or a STAT-6 Tyr-641 mutant (STAT-6-CP; Tyr-Ala-Arg-Ala-Ala-Ala-Arg-Gln-Ala-Arg-Ala-Gly-Arg-Gly-Phe-Val-Ser-Thr-Thr; SEQ ID NO:8). The STAT-6-IP and STAT-6-CP were added to splenocyte cultures daily. Treatment with the STAT-6-IP, but not the STAT-6-CP, reduced the supernatant levels of both IL-4 and IL-13 (Table 3).
BALB/c mice were sensitized systemically by two weekly i.p. injections of 0.025% ovalbumin mixed with 4 mg/mL Al(OH)3. One week after the second sensitization, mice were sacrificed and spleens harvested. A single cell suspension of splenocytes (5×10^6 cells/mL) was cultured in RPMI-1640 medium containing 10% heat-inactivated fetal bovine serum and 2 mM L-glutamine, 50 μM 2-mercaptoethanol, 100 U/mL penicillin, and 100 μg/mL streptomycin sulfate. Splenocytes were cultured for four days in the presence or absence of 100 μg/mL ovalbumin, either alone or with 100 μM STAT-6-IP or STAT-6-CP, which were added daily. After four days, culture supernatants were harvested to quantify cytokine production by ELISA. […] Cytokine expression was monitored by flow cytometry and analyzed using CELLQUEST™ software (Becton Dickinson). […]

IFN-gamma mRNA = test: Semiquantitative RT-PCR of IFN-gamma mRNA in splenocytes; type: cell-based, BALB/c mice; details: splenocytes cultured with ovalbumin plus peptide
Procedure: The levels of mRNA encoding IL-4, IL-13 and IFN-gamma were also evaluated by semiquantitative RT-PCR analysis. Ovalbumin-induced expression of both IL-4 and IL-13 mRNA was inhibited in splenocytes cultured with the STAT-6-IP and not the STAT-6-CP. […] The number of CD4+ T cells producing IL-4 was also quantified by intracellular cytokine staining. When splenocytes from ovalbumin-sensitized mice were cultured with ovalbumin, there was a significant increase in the number of CD4+ lymphocytes expressing IL-4 (Table 4). The increase in IL-4 expression was abrogated in splenocytes cultured with ovalbumin in the presence of the STAT-6-IP, while the STAT-6-CP had no effect.
Reverse transcriptase (RT)-PCR was used to monitor expression of mRNAs encoding IL-4, IL-13 and IFN-gamma. Materials for RNA extraction and RT-PCR were purchased from INVITROGEN™ Canada (Burlington, Ontario). Total RNA was extracted from splenocytes, treated with DNAse, and 1 μg of RNA was reverse transcribed into cDNA using SUPERSCRIPT™ II reverse transcriptase. […] PCR products were resolved by gel electrophoresis and visualized and quantified on a FLUORCHEM™ 8000 Imaging System (Alpha Innotech, San Leandro, Calif.) using ALPHAEASE™ software (Alpha Innotech). […]

[1] = tested on: ovalbumin-sensitized mice; test: Histology of lungs; type: in vivo, BALB/c mice; details: compared with ovalbumin-sensitized and -challenged animals
Procedure: Histology was performed according to established methods (McCusker, et al. (2002) supra). Briefly, lungs were slowly inflated with 1 mL of formalin, isolated, and placed entirely in formalin. The specimens were embedded in paraffin and […] sections prepared. Slides were stained with Giemsa and examined under standard light microscopy.

## YARAAARQARAGRGFVSTT [STAT-6-CP, STAT-6 Tyr-641 mutant, control peptide]
IL-13
  IL-13 (pg/mL ± SEM), culture supernatant: 2136.2 ± 94.7 pg/mL
IFN-gamma mRNA
  Expression of IFN-gamma mRNA: did not change
[1]
  Ovalbumin-induced lung inflammation, including airway eosinophilia (histology): did not differ
